Results reported in the NIST ThermoML archive (doi:10.1021/acs.jced.7b00099).
Several values for one entry are separate records, joined by “and”; a condition that tells them apart may be missing. Equal entries are not always repeated.

Details: Liquid, Closed cell (Static) method

CCCCCCCCCCCC(=O)OC [methyl dodecanoate]
Details	vapor or sublimation pressure [kPa]
353.15 K	0.0644
363.15 K	0.1217
373.15 K	0.2212
383.15 K	0.388
393.15 K	0.657
403.15 K	1.08
413.15 K	1.728
423.15 K	2.694
433.15 K	4.104

CCCCCCCCCCCCCCCC(=O)OC [methyl hexadecanoate]
Details	vapor or sublimation pressure [kPa]
373.15 K	0.0158
383.15 K	0.0294
393.15 K	0.0535
403.15 K	0.095
413.15 K	0.1644
423.15 K	0.2789
433.15 K	0.4635
443.15 K	0.756
453.15 K	1.21

CCCCCCCCCCCCCC(=O)OC [methyl tetradecanoate]
Details	vapor or sublimation pressure [kPa]
353.15 K	0.0133
363.15 K	0.0267
373.15 K	0.0516
383.15 K	0.0959
393.15 K	0.1723
403.15 K	0.3003
413.15 K	0.509
423.15 K	0.839
433.15 K	1.35
443.15 K	2.123
453.15 K	3.27

CCCCCCCCCCCCCC [tetradecane]
Details	vapor or sublimation pressure
351.75 K	0.124 kPa
353.15 K	0.1355 kPa and 0.1354 kPa
361.8 K	0.232 kPa
361.89 K	0.232 kPa
363.15 K	0.2517 kPa
371.91 K	0.422 kPa
373.15 K	0.4469 kPa and 0.4472 kPa
381.93 K	0.717 kPa
382.07 K	0.716 kPa
383.15 K	0.762 kPa and 0.763 kPa
391.95 K	1.186 kPa
392 K	1.186 kPa
393.15 K	1.254 kPa and 1.255 kPa
402.74 K	1.947 kPa
403.15 K	1.998 kPa
412.69 K	3.029 kPa
413.15 K	3.09 kPa and 3.086 kPa
422.55 K	4.545 kPa
423.15 K	4.652 kPa and 4.642 kPa
432.39 K	6.661 kPa
433.15 K	6.836 kPa and 6.812 kPa
442.49 K	9.461 kPa
443.15 K	9.776 kPa
452.49 K	13.46 kPa
453.15 K	13.75 kPa
